Experimental data taken from patent publication US9840513B2 (AbbVie S.à.r.l., priority 2015, dated 2017).

Target: T1, F508delCFTR cell surface expression in CFBE41o-F508delCFTR-HRP cells (Homo sapiens, UniProt P13569, DEL508-508)
T1 construct: fused on or other part: Horseradish peroxidase (HRP) reporter inserted in the fourth exofacial (extracellular) loop of CFTR; expression is doxycycline-inducible
Test: Cell Surface Expression-Horse Radish Peroxidase (CSE-HRP) Assay
Type: cell-based
Conditions: for EC50: CFBE41o-F508delCFTR-HRP cells, 18-24 hours at 33° C., 8-point curve, highest concentration 20 μM; for Maximum % activity (%): maximum at any tested concentration, normalized to on-plate positive control (3 μM)
Method in brief: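 Correctors incubated 18-24 h at 33 °C on doxycycline-induced (0.5 μg/mL, 72 h) CFBE41o-F508delCFTR-HRP cells, 3-fold series from 20 μM. After DPBS washes, luminol luminescence read; activity expressed relative to DMSO and a 3 μM positive control, EC50 fitted from triplicate plates.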

T1 sequence (P13569 with tags, fused parts or gaps DEL508-508 limits assumed): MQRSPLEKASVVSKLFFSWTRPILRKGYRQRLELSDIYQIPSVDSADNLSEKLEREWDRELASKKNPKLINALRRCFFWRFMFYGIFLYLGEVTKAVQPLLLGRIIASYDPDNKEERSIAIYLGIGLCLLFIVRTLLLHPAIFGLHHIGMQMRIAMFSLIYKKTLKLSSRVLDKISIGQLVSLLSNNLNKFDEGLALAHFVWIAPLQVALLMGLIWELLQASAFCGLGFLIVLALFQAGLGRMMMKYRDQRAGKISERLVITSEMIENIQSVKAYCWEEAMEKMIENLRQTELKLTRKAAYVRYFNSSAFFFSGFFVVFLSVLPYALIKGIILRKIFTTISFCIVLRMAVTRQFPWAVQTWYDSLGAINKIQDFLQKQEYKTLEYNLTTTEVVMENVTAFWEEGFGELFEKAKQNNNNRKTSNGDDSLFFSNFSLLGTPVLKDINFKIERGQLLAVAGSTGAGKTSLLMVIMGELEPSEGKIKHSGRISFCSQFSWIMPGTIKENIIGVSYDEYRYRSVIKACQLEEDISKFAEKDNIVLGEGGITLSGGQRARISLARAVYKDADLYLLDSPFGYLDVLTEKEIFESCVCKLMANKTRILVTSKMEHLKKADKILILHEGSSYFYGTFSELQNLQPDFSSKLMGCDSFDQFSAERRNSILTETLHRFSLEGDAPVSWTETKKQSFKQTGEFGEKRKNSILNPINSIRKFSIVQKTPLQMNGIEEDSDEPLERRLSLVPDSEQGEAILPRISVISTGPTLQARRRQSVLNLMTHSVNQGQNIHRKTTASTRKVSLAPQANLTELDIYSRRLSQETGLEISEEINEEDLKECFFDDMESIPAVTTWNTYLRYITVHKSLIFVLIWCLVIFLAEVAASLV
T1 sequence (P13569 919-1480 limits assumed, stated change not applied): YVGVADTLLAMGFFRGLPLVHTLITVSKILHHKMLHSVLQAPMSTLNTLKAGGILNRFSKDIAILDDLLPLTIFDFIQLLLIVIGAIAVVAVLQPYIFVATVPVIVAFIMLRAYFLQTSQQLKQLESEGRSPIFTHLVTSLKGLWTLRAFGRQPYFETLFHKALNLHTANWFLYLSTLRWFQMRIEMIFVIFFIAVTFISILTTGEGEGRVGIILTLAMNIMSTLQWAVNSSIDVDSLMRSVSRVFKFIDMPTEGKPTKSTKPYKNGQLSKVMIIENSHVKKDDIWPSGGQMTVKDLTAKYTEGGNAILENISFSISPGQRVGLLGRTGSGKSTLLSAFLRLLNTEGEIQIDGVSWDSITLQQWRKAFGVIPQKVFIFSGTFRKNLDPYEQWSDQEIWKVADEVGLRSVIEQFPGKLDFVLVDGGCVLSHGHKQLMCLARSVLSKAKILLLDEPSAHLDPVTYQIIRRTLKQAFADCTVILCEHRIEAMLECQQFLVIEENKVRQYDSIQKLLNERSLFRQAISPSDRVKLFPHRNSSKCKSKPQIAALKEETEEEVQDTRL

Compound | EC50 | Maximum % activity (%)
COc1ccc2c(c1)O[C@H](COCc1ccccc1)C[C@@H]2NC(=O)[C@@]1(C)COc2cc3c(cc21)OC(F)(F)O3 [Example 278, (7R)—N-{(2S,4S)-2-[(benzyloxy)methyl]-7-methoxy-3,4-dihydro-2H-1-benzopyran-4-yl}-2,2-difluoro-7-methyl-6,7-dihydro-2H-furo[2,3-f][1,3]benzodioxole-7-carboxamide] | 1540 nM | 86%
C[C@]1(C(=O)N[C@@H]2C[C@H](C3(C(=O)N(CCO)CCO)CC3)Oc3cc(OC(F)(F)F)ccc32)COc2cc3c(cc21)OC(F)(F)O3 [Example 279, (7R)—N-[(2R,4R)-2-{1-[bis(2-hydroxyethyl)carbamoyl]cyclopropyl}-7-(trifluoromethoxy)-3,4-dihydro-2H-1-benzopyran-4-yl]-2,2-difluoro-7-methyl-6,7-dihydro-2H-furo[2,3-f][1,3]benzodioxole-7-carboxamide] | 560 nM | 119%
C[C@]1(C(=O)N[C@H]2C[C@@H](C3(C(=O)N(CCO)CCO)CC3)Oc3cc(OC(F)(F)F)ccc32)COc2cc3c(cc21)OC(F)(F)O3 [Example 280, (7R)—N-[(2S,4S)-2-{1-[bis(2-hydroxyethyl)carbamoyl]cyclopropyl}-7-(trifluoromethoxy)-3,4-dihydro-2H-1-benzopyran-4-yl]-2,2-difluoro-7-methyl-6,7-dihydro-2H-furo[2,3-f][1,3]benzodioxole-7-carboxamide] | > 20000 nM | 10%
COc1ccc2c(c1)O[C@@H](c1nnnn1Cc1ccccc1)C[C@H]2NC(=O)[C@@]1(C)COc2cc3c(cc21)OC(F)(F)O3 [Example 283, (7R)—N-[(2R,4R)-2-(1-benzyl-1H-tetrazol-5-yl)-7-methoxy-3,4-dihydro-2H-1-benzopyran-4-yl]-2,2-difluoro-7-methyl-6,7-dihydro-2H-furo[2,3-f][1,3]benzodioxole-7-carboxamide] | 1760 nM | 95%
COc1ccc2c(c1)O[C@H](Cn1ncccc1=O)C[C@@H]2NC(=O)[C@@]1(C)COc2cc3c(cc21)OC(F)(F)O3 [Example 284, (7R)-2,2-difluoro-N-{(2S,4S)-7-methoxy-2-[(6-oxopyridazin-1(6H)-yl)methyl]-3,4-dihydro-2H-1-benzopyran-4-yl}-7-methyl-6,7-dihydro-2H-furo[2,3-f][1,3]benzodioxole-7-carboxamide] | 3960 nM | 40%
COc1ccc2c(c1)O[C@@H](Cn1ncccc1=O)C[C@H]2NC(=O)[C@@]1(C)COc2cc3c(cc21)OC(F)(F)O3 [Example 285, (7R)-2,2-difluoro-N-{(2R,4R)-7-methoxy-2-[(6-oxopyridazin-1(6H)-yl)methyl]-3,4-dihydro-2H-1-benzopyran-4-yl}-7-methyl-6,7-dihydro-2H-furo[2,3-f][1,3]benzodioxole-7-carboxamide] | 1130 nM | 54%
C[C@]1(C(=O)Nc2cc3cc(C4(COCc5ccccc5)CC4)n(C[C@@H](O)COCc4ccccc4)c3cc2F)COc2cc3c(cc21)OC(F)(F)O3 [Example 286, (7R)—N-(1-[(2R)-3-(benzyloxy)-2-hydroxypropyl]-2-{1-[(benzyloxy)methyl]cyclopropyl}-6-fluoro-1H-indol-5-yl)-2,2-difluoro-7-methyl-6,7-dihydro-2H-furo[2,3-f][1,3]benzodioxole-7-carboxamide] | 210 nM | 120%
CCOC(=O)C1(CN)CCC([C@H]2C[C@@H](NC(=O)[C@@]3(C)COc4cc5c(cc43)OC(F)(F)O5)c3ccc(OC(F)(F)F)cc3O2)CC1 (stereo partly drawn) [Example 287, ethyl 1-(aminomethyl)-4-[(2R,4R)-4-{[(7R)-2,2-difluoro-7-methyl-6,7-dihydro-2H-furo[2,3-f][1,3]benzodioxole-7-carbonyl]amino}-7-(trifluoromethoxy)-3,4-dihydro-2H-1-benzopyran-2-yl]cyclohexane-1-carboxylate] | 640 nM | 199%
C[C@]1(C(=O)N[C@@H]2C[C@H](C3CCC(CO)(C(=O)O)CC3)Oc3cc(OC(F)(F)F)ccc32)COc2cc3c(cc21)OC(F)(F)O3 (stereo partly drawn) [Example 288, 4-[(2R,4R)-4-{[(7R)-2,2-difluoro-7-methyl-6,7-dihydro-2H-furo[2,3-f][1,3]benzodioxole-7-carbonyl]amino}-7-(trifluoromethoxy)-3,4-dihydro-2H-1-benzopyran-2-yl]-1-(hydroxymethyl)cyclohexane-1-carboxylic acid] | 290 nM | 138%
C[C@]1(C(=O)N[C@@H]2C[C@H](C3CCC(CN)(C(=O)O)CC3)Oc3cc(OC(F)(F)F)ccc32)COc2cc3c(cc21)OC(F)(F)O3 (stereo partly drawn) [Example 289, 1-(aminomethyl)-4-[(2R,4R)-4-{[(7R)-2,2-difluoro-7-methyl-6,7-dihydro-2H-furo[2,3-f][1,3]benzodioxole-7-carbonyl]amino}-7-(trifluoromethoxy)-3,4-dihydro-2H-1-benzopyran-2-yl]cyclohexane-1-carboxylic acid] | 640 nM | 140%
COc1cc2c(cc1Br)[C@H](NC(=O)[C@@]1(C)COc3cc4c(cc31)OC(F)(F)O4)C[C@H]([C@H]1CC[C@H](C(=O)O)CC1)O2 [Example 290, trans-4-[(2R,4R)-6-bromo-4-{[(7R)-2,2-difluoro-7-methyl-6,7-dihydro-2H-furo[2,3-f][1,3]benzodioxole-7-carbonyl]amino}-7-methoxy-3,4-dihydro-2H-1-benzopyran-2-yl]cyclohexane-1-carboxylic acid] | 530 nM | 189%
COc1ccc2c(c1)O[C@@H]([C@H]1CC[C@H](C(=O)O)CC1)C[C@H]2NC(=O)[C@@]1(C)COc2c1cc1c(c2I)OC(F)(F)O1 [Example 291, trans-4-[(2R,4R)-4-{[(7R)-2,2-difluoro-4-iodo-7-methyl-6,7-dihydro-2H-furo[2,3-f][1,3]benzodioxole-7-carbonyl]amino}-7-methoxy-3,4-dihydro-2H-1-benzopyran-2-yl]cyclohexane-1-carboxylic acid] | 670 nM | 117%
COc1ccc2c(c1)O[C@@H](C1CCC(C(=O)O)CC1)C[C@H]2NC(=O)[C@]1(C)COc2cc3c(cc21)OC(F)(F)O3 (stereo partly drawn) [Example 292, 4-[(2R,4R)-4-{[(7S)-2,2-difluoro-7-methyl-6,7-dihydro-2H-furo[2,3-f][1,3]benzodioxole-7-carbonyl]amino}-7-methoxy-3,4-dihydro-2H-1-benzopyran-2-yl]cyclohexane-1-carboxylic acid] | 7540 nM | 99%
COc1ccc2c(c1)O[C@H](C1CCC(C(=O)O)CC1)C[C@@H]2NC(=O)[C@]1(C)COc2cc3c(cc21)OC(F)(F)O3 (stereo partly drawn) [Example 293, 4-[(2S,4S)-4-{[(7S)-2,2-difluoro-7-methyl-6,7-dihydro-2H-furo[2,3-f][1,3]benzodioxole-7-carbonyl]amino}-7-methoxy-3,4-dihydro-2H-1-benzopyran-2-yl]cyclohexane-1-carboxylic acid] | 1630 nM | 115%
(7R)—N-(6-{[2R)-2,3-dihydroxypropyl]amino}pyridin-2-yl)-2,2-difluoro-7-methyl-6,7-dihydro-2H-furo[2,3-f][1,3]benzodioxole-7-carboxamide [Example 92] | 1720 nM | 98%
